The structures appear in SMILES notation. Values joined by “and” are separate entries in the source; they are usually repeats but may differ in a detail not shown here. Identical values can stand only once. Inconclusive results and toxic doses are left out.

The values that follow come from PubChem BioAssay AID328 (DTP/NCI, 2004).

The test system of the test is BDF1 mice, P388 leukemia ip, median survival T/C. Description: NCI In Vivo Anticancer Drug Screen. Data for tumor model P388 Leukemia (intraperitoneal) in B6D2F1 (BDF1) mice. The settings on record: endpoint: median survival time, higher = longer survival. In short, it runs like this: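 Mice carrying the transplantable tumour receive compound or vehicle. Survival is followed in each arm, and the treated measure is divided by the vehicle measure.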

Setting [1] is: dose: 25.0 mg/kg/injection, schedule: Q01DX009 (ip), vehicle: Klucel (hydroxypropylcellulose) (HPC).
The mark [2] stands for this setting: dose: 12.5 mg/kg/injection, schedule: Q01DX009 (ip), vehicle: saline with Tween-80.
The mark [3] stands for this setting: dose: 50.0 mg/kg/injection, schedule: Q01DX009 (ip), vehicle: saline with Tween-80.
Where [4] appears, read: dose: 100.0 mg/kg/injection, schedule: Q01DX009 (ip), vehicle: saline with Tween-80.

As to `COC(=O)C1C(=O)COC1C` (centres undefined), the T/C was 109 % of control (dose: 12.5 mg/kg/injection, schedule: Q01DX005 (ip), vehicle: saline with Tween-80); 112 % of control (dose: 25.0 mg/kg/injection, schedule: Q01DX005 (ip), vehicle: saline with Tween-80); 110 % of control (dose: 50.0 mg/kg/injection, schedule: Q01DX005 (ip), vehicle: saline with Tween-80).
Turning to `C=C(Cl)c1c(C)cc(C)c(CC#N)c1C`, the T/C by setting is: (dose: 12.5 mg/kg/injection, schedule: Q04DX003 (ip), vehicle: DMSO) 100 % of control; (dose: 25.0 mg/kg/injection, schedule: Q04DX003 (ip), vehicle: DMSO) 113 % of control; (dose: 50.0 mg/kg/injection, schedule: Q04DX003 (ip), vehicle: DMSO) 100 % of control.
As for `Cc1cccc(CSc2ncnc3nc[nH]c23)n1`, the T/C runs as follows: under setting [1], 100 % of control; (dose: 25.0 mg/kg/injection, schedule: Q04DX003 (ip), vehicle: Klucel (hydroxypropylcellulose) (HPC)) 104 % of control; (dose: 50.0 mg/kg/injection, schedule: Q01DX009 (ip), vehicle: Klucel (hydroxypropylcellulose) (HPC)) 87 % of control; (dose: 50.0 mg/kg/injection, schedule: Q04DX003 (ip), vehicle: Klucel (hydroxypropylcellulose) (HPC)) 100 % of control; (dose: 100.0 mg/kg/injection, schedule: Q01DX009 (ip), vehicle: Klucel (hydroxypropylcellulose) (HPC)) 91 % of control; (dose: 100.0 mg/kg/injection, schedule: Q04DX003 (ip), vehicle: Klucel (hydroxypropylcellulose) (HPC)) 92 % of control and 104 % of control.
As for `COC1C(O)C(OC2CCC3(C)C(CCC4C3CCC3(C)C(C5=CC(=O)OC5)CCC43O)C2)OC(C)C1OC(C)=O` (centres undefined), the T/C (dose: 9.6 mg/kg/injection, schedule: Q01DX009 (ip), vehicle: saline with Tween-80) is 115 % of control; the T/C (dose: 22.0 mg/kg/injection, schedule: Q01DX009 (ip), vehicle: saline with Tween-80) is 108 % of control; the T/C (dose: 33.0 mg/kg/injection, schedule: Q01DX009 (ip), vehicle: saline with Tween-80) was 100 % of control.
For the compound `CC(=O)OCC(=O)[C@@]1(O)CC[C@H]2[C@@H]3C[C@H](F)C4=CC(=O)CC[C@]4(C)[C@H]3[C@@H](O)C[C@@]21C`, the T/C under setting [2] was 109 % of control; the T/C (dose: 25.0 mg/kg/injection, schedule: Q01DX009 (ip), vehicle: saline with Tween-80) is 118 % of control; the T/C under setting [3] is 118 % of control.
On to `COc1cc(C=Nc2cc(Cl)c(Cl)c(Cl)c2)ccc1N(CCCl)CCCl`, for which the T/C runs as follows: (dose: 1.8 mg/kg/injection, schedule: Q01DX009 (ip), vehicle: Klucel (hydroxypropylcellulose) (HPC)) 150 % of control; (dose: 2.7 mg/kg/injection, schedule: Q01DX009 (ip), vehicle: Klucel (hydroxypropylcellulose) (HPC)) 158 % of control; (dose: 3.12 mg/kg/injection, schedule: Q01DX009 (ip), vehicle: Klucel (hydroxypropylcellulose) (HPC)) 195 % of control; (dose: 4.1 mg/kg/injection, schedule: Q01DX009 (ip), vehicle: Klucel (hydroxypropylcellulose) (HPC)) 237 % of control and 163 % of control; (dose: 6.25 mg/kg/injection, schedule: Q01DX009 (ip), vehicle: Klucel (hydroxypropylcellulose) (HPC)) 227 % of control and 240 % of control and 208 % of control; (dose: 9.3 mg/kg/injection, schedule: Q01DX009 (ip), vehicle: Klucel (hydroxypropylcellulose) (HPC)) 254 % of control and 150 % of control. For the same compound, the T/C is 204 % of control (dose: 12.5 mg/kg/injection, schedule: Q01DX009 (ip), vehicle: Klucel (hydroxypropylcellulose) (HPC)); 120 % of control under setting [1]; 186 % of control (dose: 30.0 mg/kg/injection, schedule: Q04DX003 (ip), vehicle: Klucel (hydroxypropylcellulose) (HPC)); 272 % of control (dose: 45.0 mg/kg/injection, schedule: Q04DX003 (ip), vehicle: Klucel (hydroxypropylcellulose) (HPC)).
On to `C[CH2][Ge]1([CH2]C)[CH2]CC2(CCN(CCCN(C)C)C2)C[CH2]1`, for which the T/C was 105 % of control (dose: 0.5 mg/kg/injection, schedule: Q01DX009 (ip), vehicle: saline); 102 % of control (dose: 1.0 mg/kg/injection, schedule: Q01DX009 (ip), vehicle: saline); 103 % of control (dose: 2.0 mg/kg/injection, schedule: Q01DX009 (ip), vehicle: saline); 104 % of control and 118 % of control (dose: 4.0 mg/kg/injection, schedule: Q01DX009 (ip), vehicle: saline); 102 % of control (dose: 8.0 mg/kg/injection, schedule: Q01DX009 (ip), vehicle: saline); 103 % of control (dose: 16.0 mg/kg/injection, schedule: Q01DX009 (ip), vehicle: saline). The T/C runs as follows: (dose: 32.0 mg/kg/injection, schedule: Q01DX009 (ip), vehicle: saline) 100 % of control; (dose: 50.0 mg/kg/injection, schedule: Q01DX009 (ip), vehicle: saline) 102 % of control; (dose: 60.0 mg/kg/injection, schedule: Q01DX009 (ip), vehicle: saline with Tween-80) 92 % of control; (dose: 64.0 mg/kg/injection, schedule: Q01DX009 (ip), vehicle: saline) 91 % of control.
For `N#Cc1nc2nc(C(F)(F)F)[nH]c2nc1C#N`, the T/C is 100 % of control (dose: 6.25 mg/kg/injection, schedule: Q04DX003 (ip), vehicle: saline with Tween-80); 95 % of control under setting [2]; 100 % of control (dose: 12.5 mg/kg/injection, schedule: Q04DX003 (ip), vehicle: saline with Tween-80); 87 % of control and 90 % of control (dose: 25.0 mg/kg/injection, schedule: Q04DX003 (ip), vehicle: saline with Tween-80).
For `C[n+]1c(/C=C/c2ccc(O)c3ncccc23)[se]c2ccccc21`, the T/C (dose: 0.25 mg/kg/injection, schedule: Q01DX010 (ip), vehicle: saline) was 104 % of control; the T/C (dose: 0.5 mg/kg/injection, schedule: Q01DX010 (ip), vehicle: saline) was 118 % of control; the T/C (dose: 1.0 mg/kg/injection, schedule: Q01DX010 (ip), vehicle: saline) is 104 % of control; the T/C (dose: 1.5 mg/kg/injection, schedule: Q01DX010 (ip), vehicle: acetone) is 165 % of control; the T/C (dose: 3.0 mg/kg/injection, schedule: Q01DX010 (ip), vehicle: acetone) is 165 % of control; the T/C (dose: 3.0 mg/kg/injection, schedule: Q01DX010 (ip), vehicle: saline) was 122 % of control. Further, the T/C (dose: 6.0 mg/kg/injection, schedule: Q01DX010 (ip), vehicle: acetone) is 185 % of control and the T/C (dose: 25.0 mg/kg/injection, schedule: Q01DX010 (ip), vehicle: saline) was 118 % of control.
`OC(C(c1ccccc1)N1CCCCC1)C(O)(c1ccccc1)c1ccccc1` (centres undefined): the T/C (dose: 100.0 mg/kg/injection, schedule: Q01DX001 (ip), vehicle: saline sonified) was 100 % of control; the T/C (dose: 200.0 mg/kg/injection, schedule: Q01DX001 (ip), vehicle: saline sonified) was 105 % of control; the T/C (dose: 400.0 mg/kg/injection, schedule: Q01DX001 (ip), vehicle: saline sonified) is 100 % of control.
For `NC(=S)c1ccc[n+](Cc2c(Cl)cccc2Cl)c1`, the T/C was 110 % of control (dose: 50.0 mg/kg/injection, schedule: Q04DX002 (ip), vehicle: saline with Tween-80) and 101 % of control (dose: 100.0 mg/kg/injection, schedule: Q04DX002 (ip), vehicle: saline with Tween-80).
Turning to `C/C(=C1/c2ccccc2-c2n[nH]c(C)c21)S(=O)(=O)O`, the T/C (dose: 100.0 mg/kg/injection, schedule: Q04DX003 (ip), vehicle: saline with Tween-80) was 104 % of control; the T/C (dose: 200.0 mg/kg/injection, schedule: Q04DX003 (ip), vehicle: saline with Tween-80) is 100 % of control; the T/C (dose: 400.0 mg/kg/injection, schedule: Q04DX003 (ip), vehicle: saline with Tween-80) is 100 % of control.
For the compound `O=C(O)C1C2CCCCC21` (centres undefined), the T/C is, setting by setting: under setting [4], 109 % of control; (dose: 100.0 mg/kg/injection, schedule: Q01DX009 (ip), vehicle: saline) 113 % of control; (dose: 200.0 mg/kg/injection, schedule: Q01DX009 (ip), vehicle: saline with Tween-80) 100 % of control; (dose: 200.0 mg/kg/injection, schedule: Q01DX009 (ip), vehicle: saline) 109 % of control; (dose: 400.0 mg/kg/injection, schedule: Q01DX009 (ip), vehicle: saline with Tween-80) 95 % of control; (dose: 400.0 mg/kg/injection, schedule: Q01DX009 (ip), vehicle: saline) 104 % of control.
As for `COC(=O)c1ccc(OCCOc2ccc(C(C)(C)CC(C)(C)C)cc2)c([N+](=O)[O-])c1`, the T/C runs as follows: (dose: 100.0 mg/kg/injection, schedule: Q04DX003 (ip), vehicle: saline sonified) 100 % of control; (dose: 200.0 mg/kg/injection, schedule: Q04DX003 (ip), vehicle: saline sonified) 86 % of control; (dose: 400.0 mg/kg/injection, schedule: Q04DX003 (ip), vehicle: saline sonified) 86 % of control.
Regarding `CCOC(=O)N(C)C(C)Cc1ccccc1` (centres undefined), the T/C runs as follows: under setting [3], 105 % of control; under setting [4], 118 % of control.
